The structures appear in SMILES notation.

The nature of data set [1]: Water solubility noted at synthesis. It counts as physicochemical. As to conditions: crystal obtained in Example 1. As to the method:
3.58 g of 3-methyl-1-phenyl-5-pyrazolone (hereinafter, also referred to as “edaravone”), 2.59 g of malonaldehyde dianilide hydrochloride, and 20 ml of ethanol were added to a reactor and dissolved. To the obtained solution, 2.04 g of triethylamine and 0.4 ml of water were added and stirred for 1 hour at room temperature (about 25° C., hereinafter, the same applies). After the stirring, the resultant was further reacted for 1 hour at 50° C. After discharging the obtained reaction solution to 100 ml of 1N hydrochloric acid, the mixture was sufficiently stirred and the precipitate was filtered. The resulting cake was washed with water. The cake was added to 200 ml of an aqueous sodium hydroxide solution having a 1% by weight concentration and completely dissolved by heating with stirring. Next, the dissolved solution was stirred for 3 hours after cooling to room temperature. Then, the liquid containing the obtained precipitate was filtered, and then the cake was washed with water. […] Note that the melting point of ED2AP was 249° C., which was water-soluble.
3 ml of dimethylformamide was added to a reactor and the exterior of the reactor was cooled with ice water. 1.75 g of phosphorus oxychloride was slowly dropped into the reactor (Reaction Solution A). In another reactor, 1.78 g of edaravone was dissolved in 5 ml of dimethylformamide (Reaction Solution B). Under room temperature, the reaction solution B was slowly added to the reaction solution A, and the resulting mixture was allowed to react for 1 hour with the end of addition (Reaction Solution C) being a reference. In another reactor, 1.81 g of 3-methyl-1-phenyl-5-pyrazolone was added to 8 ml of chloroform and dissolved (Reaction Solution D). Under room temperature, the reaction solution C was slowly added to the reaction solution D, followed by stirring for 20 minutes and further stirring at 70° C. for 1 hour. To the resultant, 0.2 g of water was added and stirred for another 2 hours. The obtained reaction solution was discharged into 100 ml of water and extracted with a mixed solvent of toluene/ethyl acetate=1/1 (volume ratio). After condensation of the obtained extract, column purification was performed to obtain 2.92 g of yellow crystal of the compound of the formula (10) having the following physical properties.
1.00 g of edaravone, 0.72 g of paraformaldehyde, and 20 ml of formic acid were added to a reaction flask and stirred overnight for 20 hours at 70° C. The obtained reaction solution was discharged into 80 ml of water and extracted with a mixed solvent of toluene/ethyl acetate=1/1 (volume ratio). When the extract was condensed to about two-thirds, crystals were precipitated. Further, the resultant was cooled to room temperature, and sufficiently crystallized, and then filtered. The obtained cake was washed with toluene to obtain 0.88 g of pale yellow crystal of the compound of the formula (14) having the following physical properties.
In Example 1(1), synthesis was performed in the same manner as described above except that 3-methyl-1-ethyl-5-pyrazolone was used instead of edaravone to obtain red crystal of BisEp-C3 having the following physical properties. Note that BisEp-C3 was water-soluble.
In Example 1(2), synthesis was performed in the same manner as described above except that 3-methyl-1-ethyl-5-pyrazolone was used instead of edaravone to obtain yellow crystal of BisEp-C1 having the following physical properties. Note that BisEp-C1 was water-soluble.
In Example 1(3), synthesis was performed in the same manner as described above except that 3-methyl-1-ethyl-5-pyrazolone was used instead of edaravone, then the obtained reaction solution was condensed, and the resultant was subjected to column purification to obtain colorless crystal of BisEp-C1 (H2) having the following physical properties. Note that BisEp-C1 (H2) was water-soluble.

For data set [2], the system named is neutrophils isolated from the peripheral blood of healthy individuals. The data set can be described thus: Superoxide production amount of PMA-stimulated neutrophils, CLA chemiluminescence. It counts as cell-based, human. Particulars: for relative value of the superoxide production amount: 0-200 μmol/l or 0-5000 μmol/l, PMA 100 ng/ml, control being 100, FIG. 2; for reactive oxygen species-eliminating ability compared with edaravone: PMA-stimulated neutrophils, FIG. 2(A). As to the method:
For examining the reactive oxygen-eliminating effect of the antioxidant of the present invention, the superoxide produced by the neutrophils when the neutrophils isolated from the peripheral blood of healthy individuals were stimulated with PMA (phorbor-12-myristate-13-acetate) was used. The superoxide production amount was measured by chemiluminescence using CLA (2-methyl-6-pjenyl-3, 7-dihydroimidazo[1,2-a]pyrazine-3-one).
First, ED2AP, BisEp-C3, edaravone, BisEp-C1, or BisEp-C1 (H2) was added to a neutrophil of 4×10^5 cells per sample so as to achieve a predetermined concentration (0, 12.5, 25, 50, 100, or 200 μmol/l, or 0, 125, 250, 500, 1250, 2500, or 5000 μmol/l) with 5 μmol of CLA, and then the cell suspension was seeded in flat-bottomed 96-well plates. The volume of the suspension was 200 μl/well, and phenol red free Ca+, Mg+ HBSS was used as the solution. In addition, the neutrophil was stimulated by adding PMA so as to achieve a concentration of 100 ng/ml. After the stimulation, a plate reader (Envision 2104 Multilabel Reader, produced by Perkin Elmer Co., Ltd.) was used to measure the chemiluminescence value over time for 30 minutes with the PMA stimulation time being a reference. The measurement interval was 30 seconds. The sum of the chemiluminescence values obtained every 30 seconds for 30 minutes was taken as the superoxide production amount. In addition, as a control, the superoxide production amount was measured in the same manner except that each compound was not added. The relative value of the superoxide production amount when each compound was added was calculated with the superoxide production amount of the control being 100.

The test system of another data set is rat neuroid cells B50. The data set can be described thus: Toxicity evaluation on byproducts after reaction with singlet oxygen, cell viability. As to conditions: 50, 100, or 200 μmol/l reacted with RB + G-LED 525 nm in cell-free system; FIG. 6. It counts as cell-based. As to the method: In a cell-free system, the RB was added to media (50% FCS-containing RPMI-1640 media) containing edaravone, ED2AP, and BisEp-C3 having a predetermined concentration (50, 100, or 200 μmol/l) and then irradiated with LED (G-LED) at 525 nm to generate singlet oxygen, whereby reacting each compound with singlet oxygen. The cell viability was measured in the same manner as in Example 7(1), except that the culture solution after the reaction was used as a medium of the neuroid cell B50. As a negative control (NC), the cell viability was measured in the same manner except that each compound and […] were not added in the cell-free system. Further, as a control (RB), the cell viability was measured in the same manner except that each compound was not added and only […] was added in the cell-free system.

As to `CC1=NN(c2ccccc2)C(=O)/C1=C/C=C/c1c(C)nn(-c2ccccc2)c1O` (racemic) [ED2AP, 2,4-dihydro-4-[3-(5-hydroxy-3-methyl-1-phenyl-1H-pyrazol-4-yl)-2-propen-1-ylidene]-5-methyl-2-phenyl-3H-pyrazol-3-one], the solubility in water result in data set [1] is “water-soluble”. In data set [2], the “relative value of the superoxide production amount” value is on record as “suppressed the superoxide production amount in a concentration-dependent manner” and the “reactive oxygen species-eliminating ability compared with edaravone” value is listed as “more potent than edaravone at high concentrations”. For the same compound, the “cytotoxicity of the byproducts after reaction with singlet oxygen (cell viability)” value in the data set on rat neuroid cells B50 was “not cytotoxic at any concentration”.

For the compound `CCN1N=C(C)/C(=C\C=C\c2c(C)nn(CC)c2O)C1=O` (racemic) [BisEp-C3, 2,4-dihydro-4-[3-(1-ethyl-5-hydroxy-3-methyl-1H-pyrazol-4-yl)-2-propen-1-ylidene]-2-ethyl-5-methyl-3H-pyrazol-3-one], in data set [1], the solubility in water result is “water-soluble”. Besides, in data set [2], the “relative value of the superoxide production amount” value is given as “suppressed the superoxide production amount in a concentration-dependent manner” and the “reactive oxygen species-eliminating ability compared with edaravone” value was “more potent than edaravone at high concentrations”. Besides, the “cytotoxicity of the byproducts after reaction with singlet oxygen (cell viability)” value with rat neuroid cells B50 is “not cytotoxic at any concentration”.

The values are drawn from patent publication US20220110916A1, “Antioxidant and Use Thereof” (Bioradical Research Institute Corp., priority 2019, published 2022).
